Earlier results as cited in PMC8778659 (Bioconjugate Chemistry, 2021).

Test system: LNCaP xenografts
Settings: 1 h p.i. ref 29

- specific tumor uptake: 11.7 ± 4.2 %ID/g
Compound: O=C(O)CC[C@H](NC(=O)N[C@@H](CCCCNC(=O)c1ccc(-c2cn(CCOCCOCC[18F])nn2)cc1)C(=O)O)C(=O)O [[18F]PSMA-MIC01]
